Patent publication US11419806B2, “Prebiotic oral care methods using a saccharide” (Colgate-Palmolive Company, priority 2013, dated 2022)

What was measured:
[1] = tested on: beneficial oral bacteria and pathogenic oral bacteria; test: Twenty-four hour biofilm growth, overall prebiotic assessment; format: cell-based
Text: Substrates that were able to increase the biofilm mass of at least one of the above beneficial bacteria while not or only minimally increasing the biofilm mass of the pathogenic bacteria are considered to be prebiotic compounds.
The increase in biofilm formation of the tested bacteria in response to selected saccharides (D-turanose, D-lactitol, myo-inositol, and N-acetyl-D-mannosamine) was investigated by setting up biofilm growth assays in a nutritionally rich medium (brain heart infusion broth (BHI), Oxoid), over 24 hours. Late exponential growth phase liquid cultures were prepared by transferring the respective bacterium from blood agar plates to BHI and overnight incubation at 37° C. in an anaerobic atmosphere for A. viscosus, V. parvula, P. gingivalis, P. intermedia, T. forsythia, A. naeslundii, and C. sputigena, and in a 5% CO2 environment for S. salivarius, S. sanguinis, S. mitis, A. actinomycetemcomitans, S. mutans, and S. gordonii. Overnight cultures were transferred to BHI and adjusted to a concentration of 1×10^7 CFU/ml by measuring the optical density at 600 nm (OD600) (BioRad SmartSpec 3000). For each strain, 200 μl of the bacterial suspension was added to a 96-well plate containing 20 μl of the respective saccharides. Final concentrations of the saccharides were set to 5, 10, 20 and 25 μmol/ml. […] Additionally, for each bacterium tested, a background control, to correct for background staining, was added. This background control contained the bacterium tested and 0.03 weight % chlorhexidine, as an antiseptic. Plates were incubated as previously described. After 24 hrs the supernatant was removed from the wells of the plates. The wells were washed twice with 1×100 μL PBS (phosphate buffered saline), fixed for 20 minutes with 96% vol. ethanol (96% vol. solution in water) and the biofilm retained at the bottom of the wells was stained with 1 weight % crystal violet (1 weight % solution in water). The bound dye was dissolved with 5% vol. acetic acid (5% vol. solution in water). Quantification of the stained biofilm was performed by measuring the absorbance at 630 nm using a Multiskan Ascent microplate reader (Thermo Scientific).
The experiment was carried out on three different days (thus providing 3 biological replicas) and each day the experiment was carried out in quadruple (thus providing 4 technical replicas) for each combination of bacterium with saccharide and for each control. For each day and for each combination, the average (mean) of the values obtained (as detailed above) for the four technical replicas was calculated to provide a single value for each combination on each day. The values shown in Tables 7a, 7b, 8a, 8b, below, are the average (mean) of the three single values obtained for each combination of bacterium with saccharide. […]

[2] = tested on: beneficial oral bacteria and pathogenic oral bacteria; test: Microarray screen, overall prebiotic assessment; format: cell-based
Description: Substrates that were able to increase the metabolic activity of at least one of the above beneficial bacteria while not or only minimally increasing the growth of the pathogenic bacteria are considered to be prebiotic substrates.
The extent of metabolic activity of the tested bacteria in the presence of the above-mentioned saccharides after 24 hours and 48 hours was investigated through a high throughput phenotype microarray system (PM) for microbial cells (Biolog Inc.). Each PM can contain up to 95 different biochemical compounds (e.g. saccharides) that may act as substrates for bacteria as well as one negative control, not containing the substrates. Microarray plates were used in which the different wells of each plate were pre-loaded (by the manufacturer, Biolog Inc.) with different saccharides to be tested. Each bacterial species was tested using a separate microarray plate. Thus, a single bacterial species was tested with a variety of saccharides on each particular plate. The microarrays are based on redox technology, using cell respiration as a universal reporter. Active cell respiration results in the reduction of a tetrazolium dye and in the formation of a strong color—for example, when using the tetrazolium dye “Biolog Redox Dye Mix D”, the color changes from transparent/colorless to purple when the dye is reduced. The observation of this color change indicates which of the substrates improve the metabolic activity and health of the cells.
Each bacterial species was collected from blood agar plates (incubated for 48 hours anaerobically at 37° C.) and transferred to an IF-0 Base inoculation fluid (Biolog Inc.), which is a nutritionally poor medium. The resulting cell suspension was adjusted to a transmittance of 42% (relative to the transmittance of the base inoculation fluid with no bacterial species present) at 492 nm using a BioRad SmartSpec 3000 Photometer (the adjustment being effected by adding either further inoculation fluid or further bacteria until the transmittance of 42% was achieved). A 1:5 dilution of this suspension was prepared by mixing 3 mL of the 42% transmittance cell suspension with 15 mL of an inoculation fluid (which inoculation fluid was formed by mixing 11.6 mL sterile water, 62.5 mL IF-0 base inoculation fluid and 0.9 mL of the tetrazolium dye “Biolog Redox Dye mix D”), resulting in a final cell density which was equal to 85% transmittance using a BioRad SmartSpec 3000 Photometer. For each of the saccharides tested, the microarray plate (obtained from the supplier (Biolog Inc.) with saccharides already present in the relevant wells in powder form) was directly inoculated with 100 μL/well of this 85% transmittance cell suspension.
All plates were incubated in an anaerobic atmosphere at 37° C. Color changes were measured spectrophotometrically at 492 nm (Thermo Scientific Multiskan Ascent) at 24 hrs and 48 hrs using the same plate at both time points. […] After 24 hrs and 48 hrs under continuous shaking in a Multiscan microplate reader, the optical density (OD) of the synthetic medium at 24 hours and 48 hours was measured (using the microplate reader) at a wavelength of 492 nm for each combination of bacterium/saccharide, and for each of their respective controls (i.e. which contained the particular bacterium but no saccharide).
The experiment was carried out three times for each combination of bacterium with saccharide, with each repeat being carried out on a different day (thus providing three biological replicas). The controls were also carried out three times, as above. The values shown are the average (mean) of the three single values obtained (as detailed above) for each combination of bacterium with saccharide, at 24 hrs and at 48 hrs.
This value was selected in order to exclude low-stimulating metabolites and avoid false positive results.

[3] = concentrations of 5, 10, 20 and 25 μmol/ml

| SMILES | prebiotic effects (biofilm growth, threshold value 1.6) [1, 3] | prebiotic effects (metabolic activity, threshold value 2) ([2]; 24 hrs) | prebiotic effects (biofilm growth, threshold value 1.6) ([1]; concentrations of 20 and 25 μmol/ml) | speed of metabolism by beneficial versus pathogenic bacteria (value of 2 reached at 24 hrs) ([2]; 24 hrs) | prebiotic effects (metabolic activity, threshold value 2) ([2]; 48 hrs) |
| --- | --- | --- | --- | --- | --- |
| OC[C@@H](O)[C@@H](O[C@H]1O[C@H](CO)[C@H](O)[C@H](O)[C@H]1O)[C@H](O)[C@@H](O)CO [D-Lactitol, 4-O-α-D-galactopyranosyl-D-glucitol] | exhibited prebiotic effects | exhibited prebiotic effects |  |  |  |
| OC[C@H]1O[C@@](O)(CO)[C@@H](O[C@H]2O[C@H](CO)[C@@H](O)[C@H](O)[C@H]2O)[C@@H]1O [D-Turanose, α-D-glucopyranosyl-(1→3)-α-D-fructofuranose] |  | exhibited prebiotic effects | exhibited prebiotic effects | metabolized faster by the beneficial bacteria than by the pathogenic bacteria |  |
| O[C@H]1[C@H](O)[C@@H](O)[C@H](O)[C@@H](O)[C@H]1O [Myo-Inositol, (1R,2R,3S,4S,5R,6S)-cyclohexane-1,2,3,4,5,6-hexol] | exhibited prebiotic effects | exhibited prebiotic effects |  |  | exhibited prebiotic effects |
| CC(=O)N[C@H](C=O)[C@@H](O)[C@H](O)[C@H](O)CO [N-acetyl-D-mannosamine, 2-acetamido-2-deoxy-D-mannose] | exhibited prebiotic effects | exhibited prebiotic effects |  | metabolized faster by the beneficial bacteria than by the pathogenic bacteria |  |
